Structures can show the parent of a compound that is named as a salt.
target: T1, human TRPC6 (Homo sapiens, UniProt Q9Y210); assay: TRPC6 calcium flux assay (FLIPR, OAG-stimulated calcium influx); type: cell-based; details: HEK293 cells stably transfected with human TRPC6, read-out: hTRPC6 Potency
T1 construct: expressed in transfected cells
T1 sequence (Q9Y210 1-931): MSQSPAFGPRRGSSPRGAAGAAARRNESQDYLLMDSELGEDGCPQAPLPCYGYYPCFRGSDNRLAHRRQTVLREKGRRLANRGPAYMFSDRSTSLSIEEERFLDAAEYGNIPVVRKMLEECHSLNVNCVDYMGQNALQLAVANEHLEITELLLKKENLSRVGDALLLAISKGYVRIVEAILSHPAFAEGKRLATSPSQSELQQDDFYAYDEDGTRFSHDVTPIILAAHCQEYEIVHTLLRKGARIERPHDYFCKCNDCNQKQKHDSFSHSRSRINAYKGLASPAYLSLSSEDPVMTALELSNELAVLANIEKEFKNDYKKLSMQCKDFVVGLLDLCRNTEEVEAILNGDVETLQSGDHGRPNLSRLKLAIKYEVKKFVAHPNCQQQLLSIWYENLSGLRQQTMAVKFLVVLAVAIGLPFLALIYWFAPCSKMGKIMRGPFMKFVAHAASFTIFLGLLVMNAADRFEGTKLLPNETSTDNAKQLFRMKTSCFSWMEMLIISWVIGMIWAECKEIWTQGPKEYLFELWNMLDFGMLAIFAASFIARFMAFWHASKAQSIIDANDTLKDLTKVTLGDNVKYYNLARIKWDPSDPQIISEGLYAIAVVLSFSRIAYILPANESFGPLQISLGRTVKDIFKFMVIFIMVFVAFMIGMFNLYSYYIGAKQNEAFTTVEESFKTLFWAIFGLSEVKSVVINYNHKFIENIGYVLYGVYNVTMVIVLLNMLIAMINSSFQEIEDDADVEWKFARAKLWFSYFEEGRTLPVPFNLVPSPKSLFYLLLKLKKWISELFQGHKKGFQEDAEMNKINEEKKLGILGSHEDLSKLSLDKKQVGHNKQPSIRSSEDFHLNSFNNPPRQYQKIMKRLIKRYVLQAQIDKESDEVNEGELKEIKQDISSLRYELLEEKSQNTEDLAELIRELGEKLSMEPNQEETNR
Outline: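 HEK293 cells stably expressing human TRPC6, loaded with calcium dye 90–120 min at RT, then given compound for 25 min before OAG (50 uM final, 0.5% DMSO) in HEPES buffer pH 7.2 with 2 mM CaCl2. Background-subtracted FLIPR peak over 180 s normalized to OAG vs buffer; IC50 from dose plot.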

Row | Compound | IC50
1 | N#Cc1ccc(Cn2c(N3CCC[C@H](N)C3)nc3ccc(Cl)cc32)nc1 [Example 1, (S)-6-((2-(3-aminopiperidin-1-yl)-6-chloro-1H-benzo[d]imidazol-1-yl)methyl)nicotinonitrile] | 0.696 nM
2 | N[C@@H]1CCCN(c2nc3ccccc3n2Cc2ccc(Cl)cc2Cl)C1 [Example 395, (R)-1-(1-(2,4-dichlorobenzyl)-1H-benzo[d]imidazol-2-yl)piperidin-3-amine] | 1120 nM
3 | N[C@@H]1CN(c2nc3cc(F)c(F)cc3n2Cc2nnc(C3CC3)o2)CC[C@H]1F [Example 581, (3R,4R)-1-(1-((5-cyclopropyl-1,3,4-oxadiazol-2-yl)methyl)-5,6-difluoro-1H-benzo[d]imidazol-2-yl)-4-fluoropiperidin-3-amine] | 368 nM
4 | NC(=O)c1cnc(Cn2c(N3CC[C@H](F)[C@H](N)C3)nc3ccc(C(F)(F)F)cc32)cn1 [Example 122, 5-((2-((3R,4S)-3-amino-4-fluoro-1-piperidinyl)-6-(trifluoromethyl)-1H-benzimidazol-1-yl)methyl)-2-pyrazinecarboxamide] | 29.9 nM
5 | N#Cc1ccc(Cn2c(N3CC[C@H](F)[C@H](N)C3)nc3c(Cl)cccc32)nc1 [Example 5] | 2.92 nM
6 | CC1(O)CCN(C(=O)Cn2c(N3CC[C@@H](F)[C@H](N)C3)nc3cc(F)c(F)cc32)C1 (stereo partly drawn) [Example 648, 2-(2-((3R,4R)-3-amino-4-fluoropiperidin-1-yl)-5,6-difluoro-1H-benzo[d]imidazol-1-yl)-1-(3-hydroxy-3-methylpyrrolidin-1-yl)ethanone] | 3350 nM
7 | N[C@@H]1CN(c2nc3ccc(Br)cc3n2CC(=O)N2CCC2)CC[C@H]1F [Example 455, 2-(2-((3R,4R)-3-amino-4-fluoropiperidin-1-yl)-6-bromo-1H-benzo[d]imidazol-1-yl)-1-(azetidin-1-yl)ethan-1-one] | 6.56 nM
8 | N[C@@H]1CN(c2nc3cc(F)cc(F)c3n2Cc2ncc(F)cn2)CC[C@H]1F [Example 34, (3R,4R)-1-(5,7-difluoro-1-((5-fluoropyrimidin-2-yl)methyl)-1H-benzo[d]imidazol-2-yl)-4-fluoropiperidin-3-amine] | 68.9 nM
9 | N[C@@H]1CN(c2nc3c(F)cc(F)cc3n2Cc2nnc(C(F)F)s2)CC[C@H]1F [Example 557, (3R,4R)-1-(1-((5-(difluoromethyl)-1,3,4-thiadiazol-2-yl)methyl)-4,6-difluoro-1H-benzo[d]imidazol-2-yl)-4-fluoropiperidin-3-amine] | 12.8 nM
10 | N#Cc1ccccc1Cn1c(N2CCC[C@@H](N)C2)nc2ccccc21 [Example 372, (R)-2-((2-(3-aminopiperidin-1-yl)-1H-benzo[d]imidazol-1-yl)methyl)benzonitrile] | 14100 nM
11 | N[C@@H]1CN(c2nc3ccccc3n2Cc2ncc(Br)cn2)CC[C@H]1F [Example 192, (3R,4R)-1-(1-((5-bromopyrimidin-2-yl)methyl)-1H-benzo[d]imidazol-2-yl)-4-fluoropiperidin-3-amine] | 1.72 nM
12 | N#Cc1ccc(Cn2c(N3CCC[C@@H](N)C3)nc3ccccc32)cc1 [Example 162, (R)-4-((2-(3-aminopiperidin-1-yl)-1H-benzo[d]imidazol-1-yl)methyl)benzonitrile] | 257 nM
13 | N#Cc1ccc(Cn2c(N3CCC[C@H](N)C3)nc3cc(C#N)ccc32)nc1 [Example 52, (S)-2-(3-aminopiperidin-1-yl)-1-((5-cyanopyridin-2-yl)methyl)-1H-benzo[d]imidazole-5-carbonitrile] | 24.2 nM
14 | Cc1nc(Cn2c(N3CC[C@@H](F)[C@H](N)C3)nc3cc(F)c(F)cc32)oc1C [Example 575, (3R,4R)-1-(1-((4,5-dimethyloxazol-2-yl)methyl)-5,6-difluoro-1H-benzo[d]imidazol-2-yl)-4-fluoropiperidin-3-amine] | 155 nM
15 | NC(=O)C1CCCN(C(=O)Cn2c(N3CC[C@@H](F)[C@H](N)C3)nc3cc(F)c(F)cc32)C1 (mixture of isomers) [Example 530, 1-(2-(2-((3R,4R)-3-amino-4-fluoropiperidin-1-yl)-5,6-difluoro-1H-benzo[d]imidazol-1-yl)acetyl)piperidine-3-carboxamide] | > 3750 nM
16 | CN(C(=O)Cn1c(N2CC[C@@H](F)[C@H](N)C2)nc2cc(F)c(F)cc21)C(C)(C)C#N [Example 533, 2-(2-((3R,4R)-3-amino-4-fluoropiperidin-1-yl)-5,6-difluoro-1H-benzo[d]imidazol-1-yl)-N-(2-cyanopropan-2-yl)-N-methylacetamide] | > 3750 nM
17 | CN(CC(F)(F)F)C(=O)Cn1c(N2CC[C@@H](N)C2)nc2ccc(F)cc21 [Example 490, (R)-2-(2-(3-aminopyrrolidin-1-yl)-6-fluoro-1H-benzo[d]imidazol-1-yl)-N-methyl-N-(2,2,2-trifluoroethyl)acetamide] | > 3750 nM
18 | N#Cc1ccc(Cn2c(N3CCC(F)(F)[C@H](N)C3)nc3ccc(C(F)(F)F)cc32)nc1 [Example 108, 6-((2-((3R)-3-amino-4,4-difluoro-1-piperidinyl)-6-(trifluoromethyl)-1H-benzimidazol-1-yl)methyl)-3-pyridinecarbonitrile] | 0.433 nM
19 | N[C@@H]1CN(c2nc3cc(F)c(F)cc3n2[C@H]2CCN(c3ccc(Cl)cc3)C2=O)CC[C@H]1F [Example 247, (S)-3-(2-((3R,4R)-3-amino-4-fluoropiperidin-1-yl)-5,6-difluoro-1H-benzo[d]imidazol-1-yl)-1-(4-chlorophenyl)pyrrolidin-2-one] | 75.4 nM
20 | N#Cc1ccc(Cn2c(N3C[C@@H]4CC[C@H](N)[C@@H]4C3)nc3ccccc32)nc1 [Example 77, 6-((2-((3aS,4S,6aR)-4-aminohexahydrocyclopenta[c]pyrrol-2(1H)-yl)-1H-benzo[d]imidazol-1-yl)methyl)nicotinonitrile hydrochloride] | 10.9 nM
21 | N[C@@H]1CN(c2nc3cc(F)c(F)cc3n2Cc2cc(-c3cccc(Cl)c3)no2)CC[C@H]1F [Example 263, (3R,4R)-1-(1-((3-(3-chlorophenyl)-1,2-oxazol-5-yl)methyl)-5,6-difluoro-1H-benzimidazol-2-yl)-4-fluoro-3-piperidinamine] | 765 nM
22 | N#Cc1ccc(Cn2c(N3CC[C@@H](CN)C3)nc3ccccc32)nc1 [Example 81, (S)-6-((2-(3-(aminomethyl)pyrrolidin-1-yl)-1H-benzo[d]imidazol-1-yl)methyl)nicotinonitrile hydrochloride] | 557 nM
23 | CN(CC1CCS(=O)(=O)C1)C(=O)Cn1c(N2CC[C@@H](F)[C@H](N)C2)nc2cc(F)c(F)cc21 (mixture of isomers) [Example 652, 2-(2-((3R,4R)-3-amino-4-fluoropiperidin-1-yl)-5,6-difluoro-1H-benzo[d]imidazol-1-yl)-N-((1,1-dioxidotetrahydrothiophen-3-yl)methyl)-N-methylacetamide] | > 3750 nM
24 | N[C@@H]1CN(c2nc3cc(F)c(F)cc3n2CC(=O)N2CCN3C(=O)OCC3C2)CC[C@H]1F (stereo partly drawn) [Example 659, 7-(2-(2-((3R,4R)-3-amino-4-fluoropiperidin-1-yl)-5,6-difluoro-1H-benzo[d]imidazol-1-yl)acetyl)tetrahydro-1H-oxazolo[3,4-a]pyrazin-3(5H)-one] | > 3750 nM
25 | Cn1ncc2cccc(Cn3c(N4CC[C@@H](F)[C@H](N)C4)nc4cc(F)c(F)cc43)c21 [Example 264, (3R,4R)-1-(5,6-difluoro-1-((1-methyl-1H-indazol-7-yl)methyl)-1H-benzimidazol-2-yl)-4-fluoro-3-piperidinamine] | 217 nM
26 | C[C@H](c1ccc(C#N)cn1)n1c(N2CC[C@@H](F)[C@H](N)C2)nc2ccccc21 [Example 297, 6-((R)-1-(2-((3R,4R)-3-amino-4-fluoropiperidin-1-yl)-1H-benzo[d]imidazol-1-yl)ethyl)nicotinonitrile hydrochloride] | 78.5 nM
27 | COCC1CN(C(=O)Cn2c(N3CC[C@@H](F)[C@H](N)C3)nc3cc(F)c(F)cc32)CCO1 (mixture of isomers) [Example 647, 2-(2-((3R,4R)-3-amino-4-fluoropiperidin-1-yl)-5,6-difluoro-1H-benzo[d]imidazol-1-yl)-1-(2-(methoxymethyl)morpholino) ethanone] | 3170 nM
28 | N[C@@H]1CN(c2nc3cc(F)c(F)cc3n2Cc2ccc(F)c(Cl)c2)CC[C@H]1F [Example 349, (3R,4R)-1-(1-(3-chloro-4-fluorobenzyl)-5,6-difluoro-1H-benzimidazol-2-yl)-4-fluoro-3-piperidinamine] | 215 nM

— patent publication US11332459B2 (TEIJIN PHARMA LIMITED, priority 2017, dated 2022)
